This passage reports TGI results from PubChem BioAssay (NCI).

Molecules are shown by their SMILES.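 All cell lines were grown in 96-well plates and treated with compound for 48 hours. TGI: concentration producing complete growth inhibition.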

The first test has as its system NCI-H226 lung. Description: NCI tumour cell line growth inhibition, 48 h.
For `O=c1cc(N=P(c2ccccc2)(c2ccccc2)c2ccccc2)n(-c2ccccc2)c(=O)n1-c1ccccc1`, the TGI was 22.2 µM.
Compound `COc1ccc(C2(CC(C)O)SCCCS2)cc1` (configuration not stated) gave a TGI greater than 100 µM.
Consider `Clc1ccc(-c2nn3c(-c4ccncc4)nnc3s2)cc1`, for which the TGI is greater than 100 µM.
In turn, `COc1ccc(C(OCC2OC(n3cc(C)c(=O)[nH]c3=O)CC2n2cc(Cn3cc(F)c(=O)[nH]c3=O)nn2)(c2ccccc2)c2ccccc2)cc1` (configuration not stated) returned a TGI of 36.7 µM.
In turn, `C=CCn1c(=O)ccn(COCCO)c1=O` showed a TGI greater than 100 µM.
Still for that read-out and setting: the same measure for `Oc1ccccc1/C=N/c1nc2cc3sc(/N=C/c4ccccc4O)nc3cc2s1`: 98.5 µM; for `CCN(CC)CCOc1ccc(N2C(=O)c3cc(OC)c(OC)cc3C2=O)cc1`: greater than 100 µM.
`C(=N\NC1=NCCCN1)/c1ccc2ccccc2c1` returned a TGI of 27.1 µM.
The compound `CCOC(=N)n1c(=O)n(C2=NCCN2)c2ccccc21` had a TGI greater than 100 µM.
Regarding `O=C(NCCN1CCOCC1)c1ccc2cc(C(=O)N3CC(CCl)c4ccc([N+](=O)[O-])cc43)[nH]c2c1` (configuration not stated), the TGI is greater than 100 µM.
Compound `O=c1c2cc3c(cc2[nH]c2ncccc12)OCO3` showed a TGI greater than 10 µM.
Compound `O=C(CNc1ccccc1Cl)Nn1c(-c2ccccc2)nc2ccccc2c1=O` came in with a TGI of 81.1 µM.
Still for that read-out and setting: the same measure for `Cc1csc(-c2cn(C)c3c2C(=O)C(N)=CC3=O)n1`: greater than 80.1 µM.
The same measure, in the same setting: the result for `Cc1cc2[nH]c3[nH]c(=O)[nH]c(=O)c3c2cc1C` reads greater than 100 µM; that for `Nc1c(-c2cccc3ccccc23)c2ccc([N+](=O)[O-])cc2c(=O)n1-c1nc2ccccc2s1`, 16.3 µM; that for `CC1CC[C@@]2(OC1)OC1C[C@H]3[C@@H]4CC[C@H]5CC(OC6OC(CO)C(OC7OC(CO)C(O)C(O)C7OC7OC(CO)C(O)C(O)C7O)C(O)C6O)CCC5(C)[C@H]4CCC3(C)C1[C@@H]2C` (some centres not stated), 3.37 µM.
Same read-out and setting: the same measure for `CC1(C)N=C(C(N)=O)c2ncn(CCCO)c2N1`: greater than 100 µM.
With `CC(C)COP(=O)(OCC(C)C)C(NS(=O)(=O)c1ccccc1)(C(F)(F)F)C(F)(F)F`, the TGI worked out at 39.9 µM.
In turn, `CN(C)CCCN1C(=S)N(CCCN(C)C)c2c3cc(O)ccc3nc3c([N+](=O)[O-])ccc1c23` returned a TGI of 13.7 µM.
With `CC(O)C1CC1(CO)CNc1cc(Cl)nc(N)n1` (configuration not stated), the TGI is greater than 100 µM.
The compound `CN(C)Cc1cc(C(=O)/C=C/c2ccc(O)cc2)cc(CN(C)C)c1O` yielded a TGI greater than 100 µM.

The next test concerns RXF 393 renal. As to the kind of experiment: NCI tumour cell line growth inhibition, 48 h.
Compound `O=c1cc(N=P(c2ccccc2)(c2ccccc2)c2ccccc2)n(-c2ccccc2)c(=O)n1-c1ccccc1` registered a TGI of 15.1 µM.
`COc1ccc(C2(CC(C)O)SCCCS2)cc1` (configuration not stated) showed a TGI greater than 100 µM.
Consider `Clc1ccc(-c2nn3c(-c4ccncc4)nnc3s2)cc1`, for which the TGI turned out to be 82.1 µM.
Same read-out and setting: the result for `COc1ccc(C(OCC2OC(n3cc(C)c(=O)[nH]c3=O)CC2n2cc(Cn3cc(F)c(=O)[nH]c3=O)nn2)(c2ccccc2)c2ccccc2)cc1` (configuration not stated) reads 49.6 µM; that for `C=CCn1c(=O)ccn(COCCO)c1=O`, greater than 100 µM; that for `Oc1ccccc1/C=N/c1nc2cc3sc(/N=C/c4ccccc4O)nc3cc2s1`, greater than 85.3 µM.
The compound `CCN(CC)CCOc1ccc(N2C(=O)c3cc(OC)c(OC)cc3C2=O)cc1` had a TGI greater than 100 µM.
For `C(=N\NC1=NCCCN1)/c1ccc2ccccc2c1`, the TGI amounted to 30.3 µM.
`CCOC(=N)n1c(=O)n(C2=NCCN2)c2ccccc21` returned a TGI greater than 100 µM.
`O=C(NCCN1CCOCC1)c1ccc2cc(C(=O)N3CC(CCl)c4ccc([N+](=O)[O-])cc43)[nH]c2c1` (configuration not stated) yielded a TGI of 20.4 µM.
With `O=c1c2cc3c(cc2[nH]c2ncccc12)OCO3`, the TGI is greater than 10 µM.
Same read-out and setting: the result for `O=C(CNc1ccccc1Cl)Nn1c(-c2ccccc2)nc2ccccc2c1=O` reads 36.7 µM; that for `Cc1csc(-c2cn(C)c3c2C(=O)C(N)=CC3=O)n1`, greater than 100 µM; that for `Cc1cc2[nH]c3[nH]c(=O)[nH]c(=O)c3c2cc1C`, greater than 100 µM.
For the compound `Nc1c(-c2cccc3ccccc23)c2ccc([N+](=O)[O-])cc2c(=O)n1-c1nc2ccccc2s1`, the TGI is greater than 31.3 µM.
With `CC1CC[C@@]2(OC1)OC1C[C@H]3[C@@H]4CC[C@H]5CC(OC6OC(CO)C(OC7OC(CO)C(O)C(O)C7OC7OC(CO)C(O)C(O)C7O)C(O)C6O)CCC5(C)[C@H]4CCC3(C)C1[C@@H]2C` (some centres not stated), the TGI stood at 2.76 µM.
`CC1(C)N=C(C(N)=O)c2ncn(CCCO)c2N1` came in with a TGI greater than 100 µM.
Compound `CC(C)COP(=O)(OCC(C)C)C(NS(=O)(=O)c1ccccc1)(C(F)(F)F)C(F)(F)F` gave a TGI of 21.1 µM.
On the same count and under the same terms, the result for `CN(C)CCCN1C(=S)N(CCCN(C)C)c2c3cc(O)ccc3nc3c([N+](=O)[O-])ccc1c23` reads 15.1 µM.
On the same count and under the same terms, the result for `CC(O)C1CC1(CO)CNc1cc(Cl)nc(N)n1` (configuration not stated) reads greater than 100 µM; that for `CN(C)Cc1cc(C(=O)/C=C/c2ccc(O)cc2)cc(CN(C)C)c1O`, greater than 100 µM.

In the next test the test system is OVCAR-8 ovarian. As to the kind of experiment: NCI tumour cell line growth inhibition, 48 h.
`O=c1cc(N=P(c2ccccc2)(c2ccccc2)c2ccccc2)n(-c2ccccc2)c(=O)n1-c1ccccc1` came in with a TGI greater than 100 µM.
Turning to `COc1ccc(C2(CC(C)O)SCCCS2)cc1` (configuration not stated), the TGI is greater than 100 µM.
On the same count and under the same terms, the same measure for `Clc1ccc(-c2nn3c(-c4ccncc4)nnc3s2)cc1`: greater than 100 µM.
Turning to `COc1ccc(C(OCC2OC(n3cc(C)c(=O)[nH]c3=O)CC2n2cc(Cn3cc(F)c(=O)[nH]c3=O)nn2)(c2ccccc2)c2ccccc2)cc1` (configuration not stated), the TGI is greater than 100 µM.
`C=CCn1c(=O)ccn(COCCO)c1=O` yielded a TGI greater than 100 µM.
The compound `Oc1ccccc1/C=N/c1nc2cc3sc(/N=C/c4ccccc4O)nc3cc2s1` showed a TGI greater than 100 µM.
The compound `CCN(CC)CCOc1ccc(N2C(=O)c3cc(OC)c(OC)cc3C2=O)cc1` yielded a TGI greater than 100 µM.
In turn, `C(=N\NC1=NCCCN1)/c1ccc2ccccc2c1` had a TGI of 29.3 µM.
For the compound `CCOC(=N)n1c(=O)n(C2=NCCN2)c2ccccc21`, the TGI is greater than 100 µM.
`O=C(NCCN1CCOCC1)c1ccc2cc(C(=O)N3CC(CCl)c4ccc([N+](=O)[O-])cc43)[nH]c2c1` (configuration not stated) displayed a TGI of 35.4 µM.
